Values of other authors in patent publication US20250177267A1, “A CLEANSING COMPOSITION” (Conopco, Inc., d/b/a UNILEVER, priority 2022, published 2025).

Conditions: prior art acids with pKa greater than 4.5

Compound: CCCCCC(=O)O [hexanoic acid]
- pKa: 4.72
